One assay concerns RBM39 (CAPERα). The following applies: mechanism of action; Non Patent Literature 1; cited from earlier work.
Assay [1] deals with DLD-1-BRCA2 KO+BRCA2 WT (BRCA2 KO+WT). As to the kind of experiment: Growth inhibition of DLD-1-BRCA2 KO+BRCA2 WT, 12-day culture, photographed (Example 3). In kind it is cell-based. The settings on record: 1 μM; day 12. As for the experimental part: (§1) DLD-1 cells (parental), DLD-1-BRCA2 KO (BRCA2 KO), or DLD-1-BRCA2 KO+BRCA2 WT (BRCA2 KO+WT) were seeded at 3×10^3 cells per well in a 6-well plate and incubated at 37 °C under 5% CO2. After removing the medium, a medium containing no drug, or containing 100 nM E7820, 1 μM E7820, 1 μM Indisulam (E7070), or 1 μM olaparib was added, and the cells were cultured at 37 °C under 5% CO2. The medium was replaced with fresh medium containing the same concentration of the drug on days 3, 6, and 9, with the day of drug addition being day 0. On day 12, the cells were photographed, and the sensitivity of the cells to each drug was evaluated.

For assay [2], the system named is DLD-1-BRCA2 KO (BRCA2 KO). As to the kind of experiment: Growth inhibition of DLD-1-BRCA2 KO, 12-day culture, photographed (Example 3). Format: cell-based. The settings on record: 1 μM; day 12. As for the experimental part:
as §1

In a further assay the test system is DLD-1 cells (parental). Kind of assay: Growth inhibition of DLD-1 cells (parental), 12-day culture, photographed (Example 3). Format: cell-based. The following applies: day 12. As for the experimental part: as §1
For assay [3], the system named is PDX tumors (cholangiocarcinoma, pancreatic cancer, gastric cancer, endometrial cancer, uterine sarcoma). As to the kind of experiment: Therapeutic effect of E7820 in patient-derived xenograft (PDX) mouse models and relationship with gene mutations (Example 1). In kind it is in vivo, human patient-derived tumors in NOG mice. As to the method: In 30 cases of patient-derived xenograft (PDX) mouse models, the therapeutic effect of the cancer therapeutic E7820 that regulates splicing function and the presence or absence of various gene mutations were evaluated.
PDX model mice were prepared by transplanting 2-3 mm square PDX tumor fragments subcutaneously into the back of test animals and allowing them to grow. The test animals used were NOD.Cg-Prkdcscidll2rgtmlSug/ShiJic (NOG mice), female, and 6 weeks old or older. Tumor tissues from 30 patients, including 9 cases of cholangiocarcinoma, 9 cases of pancreatic cancer, 6 cases of gastric cancer, 3 cases of endometrial cancer, and 3 cases of uterine sarcoma, were used as tumor tissues. Grouping was performed when the average tumor volume of the experimental animals reached a size suitable for grouping (approximately 200 mm^3), with each group consisting of n=3-5 mice.
From the day of grouping, E7820 was administered orally at a dose of 100 mg/kg once daily to the 30 PDX model mice prepared in 1-1. Body weight and tumor volume were measured twice a week during the observation period from the day before drug administration and from the day drug administration started (day 0) to day 21. Tumor volume was measured by measuring the long and short diameters of the tumor using calipers and calculating the tumor volume according to the following formula. For animals with no detectable tumor, the tumor volume was set to 0.00 mm^3.
Tumor volume (mm^3)=½×long diameter (mm)×short diameter (mm)×short diameter (mm)
Whole exome sequencing (WES), one of the next-generation sequencing methods, was performed on genomic DNA extracted from the PDX using the NovaSeq 6000 system (Illumina), and mutation analysis was conducted.
(A xenograft is tissue or cells of one species grown in another, often human tumour cells in immunodeficient mice.)

The next assay deals with γH2AX in wild-type DLD-1. Kind of assay: Induction of DNA double-strand breaks (γH2AX Western blotting) in wild-type DLD-1 (Example 4). The settings on record: 1 μM; 72 hours. In kind it is cell-based. As for the experimental part: DLD-1 cells (parental), DLD-1-BRCA2 KO (BRCA2 KO), or DLD-1-BRCA2 KO+BRCA2 WT (BRCA2 KO+WT) were seeded at 1×10^6 cells per well in a 6-well plate and incubated at 37 °C under 5% CO2. After removing the medium, a medium containing no drug, or containing 1 μM E7820, 1 μM Indisulam (E7070), or 1 μM olaparib was added, and the cells were cultured at 37 °C under 5% CO2 for 72 hours. After removing the medium, the cells were washed with PBS, cooled on ice, and RIPA buffer (containing protease and phosphatase inhibitors, Proteintech) was added. The cells were collected using a cell scraper. The collected samples were incubated on ice for 30 minutes, then centrifuged at 12,000×g for 15 minutes at 4 °C to pellet the cell debris. The supernatant was transferred to a new microtube without touching the pellet to obtain the lysate. The obtained lysate was used for SDS-PAGE, membrane transfer, and Western blotting to evaluate the induction of DNA double-strand breaks. The antibodies used for Western blotting were Anti-phospho-Histone H2A.X (Ser139) Antibody (anti-yH2AX antibody, cat #05-636, Sigma-Aldrich) and GAPDH (14C10) Rabbit mAb (anti-GAPDH antibody, cat #2118, Cell Signaling Technology).
A general note: In western blotting, separated proteins are transferred to a membrane and probed.

The mark [4] stands for this setting: 100 mg/kg orally once daily, day 21, among 14 cases with tumor reduction.
Setting [5] is: 100 mg/kg orally once daily, day 21, among 16 cases without tumor reduction.

Turning to `Cc1ccc(NS(=O)(=O)c2cccc(C#N)c2)c2[nH]cc(C#N)c12` [E7820, N-(3-cyano-4-methyl-1H-indol-7-yl)-3-cyanobenzenesulfonamide], the “promotion of the proteasomal degradation of RBM39” value (“promotion” for short) in the assay on RBM39 (CAPERα) is on record as “promotion of the proteasomal degradation of RBM39”. In assay [1], the growth inhibitory effect entry is “growth inhibitory effects were observed” and the “growth of surviving cells” value is reported as “the growth of surviving cells was observed”. Also, in assay [2], the growth inhibitory effect entry is “significant growth inhibitory effects”, the “induction of cell death” value is listed as “induction of cell death were observed” and the remaining cells entry is given as “almost no remaining cells”. The growth inhibitory effect result with DLD-1 cells (parental) (100 nM) was “no growth inhibitory effect was observed”. In addition, in the assay with DLD-1 cells (parental) (1 μM), the growth inhibitory effect entry is listed as “no growth inhibitory effect was observed”. In assay [3] (setting [4]), the “number of cases with mutations in one or more of BRCA1, BRCA2, ATM, ATR, and BAP1 among the 14 cases with tumor reduction effect” value was 11 cases; the “percentage of cases with mutations in one or more of BRCA1, BRCA2, ATM, ATR, and BAP1 among the 14 cases with tumor reduction effect” value came out at 79%. Further, in assay [3] (setting [5]), the “number of cases with mutations in one or more of the five genes among the 16 cases without tumor reduction effect” value is reported as 3 cases and the “percentage of cases with mutations in one or more of the five genes among the 16 cases without tumor reduction effect” value worked out at 19%. The “PDX model mice in which the tumor volume on day 21 was smaller than on day 0 (tumor reduction effect)” value in assay [3] (100 mg/kg orally once daily, day 21 vs day 0) is listed as 14 out of the 30 PDX model mice. Besides, in assay [3] (100 mg/kg orally once daily, day 21 vs day 0, 30 PDX models), the “cases in which no tumor reduction effect was observed” value came to 16 cases. For the same molecule, in assay [3] (PDX model mouse, tumor with mutation in homologous recombination repair-related gene), the “tumor reduction effect in model mouse transplanted with a tumor having a mutation in a homologous recombination repair-related gene” value is on record as “high tumor reduction effect”.
Turning to `NS(=O)(=O)c1ccc(S(=O)(=O)Nc2cccc3c(Cl)c[nH]c23)cc1` [Indisulam, N-(3-chloro-1H-indol-7-yl)-4-sulfamoylbenzenesulfonamide], the “promotion” value with RBM39 (CAPERα) is “promotion of the proteasomal degradation of RBM39”. In addition, in assay [1], the growth inhibitory effect result is given as “growth inhibitory effects were observed” and the “growth of surviving cells” value is listed as “the growth of surviving cells was observed”. Also, in assay [2], the growth inhibitory effect entry is on record as “significant growth inhibitory effects”, the “induction of cell death” value is reported as “induction of cell death were observed” and the remaining cells result was “almost no remaining cells”. In addition, the growth inhibitory effect result in the assay with DLD-1 cells (parental) (1 pM (so in the source)) is recorded as “no growth inhibitory effect was observed”.
In the case of `Nc1ccc(S(=O)(=O)Nc2cnc3c(Cl)cccc3n2)cc1` [NSC339004, 4-amino-N-(5-chloroquinoxalin-2-yl)benzenesulfonamide], in the assay with RBM39 (CAPERα), the “promotion” value was “promotion of the proteasomal degradation of RBM39”.
For `O=C(c1cc(Cc2n[nH]c(=O)c3ccccc23)ccc1F)N1CCN(C(=O)C2CC2)CC1` [olaparib], in assay [1], the growth inhibitory effect entry is reported as “growth inhibitory effects were observed” and the “growth of surviving cells” value is “the growth of surviving cells was observed”. Moreover, in assay [2], the growth inhibitory effect result was “significant growth inhibitory effects”, the “induction of cell death” value was “induction of cell death were observed” and the remaining cells result is reported as “almost no remaining cells”. For the same molecule, the γH2AX levels entry in the assay with γH2AX in wild-type DLD-1 was “increase in γH2AX levels”. Moreover, in the assay on DLD-1 cells (parental) (1 μM), the growth inhibitory effect entry was “no growth inhibitory effect was observed”.

(Values after US20260364077A1, “Method for Predicting Success in Test Subject of Cancer Treatment Drug Which Regulates Splicing Function” (NATIONAL CANCER CENTER, priority 2022, published 2026).)
